Assay results: ChEMBL document CHEMBL6103565, “Current strategies in design and synthesis of antifungals hybrid and chimeric diazine derivatives” (Bioorg Med Chem, 2025)
In brackets after ≈: the same amount, converted by molar mass.

Each molecule was assayed on Aspergillus fumigatus (assay: Antifungal activity against Aspergillus fumigatus assessed as zone of inhibition).
Type: functional

**Q.** How did the “inhibition zone (IZ)” value turn out when `CCc1nnc2c(Nc3ccc(C4=NN(c5ccccc5)C(c5ccc(Cl)cc5)C4)cc3)nc3ccccc3n12` (stereo not given) was run?
**A.** The value was 21 mm.

**Q.** `CCc1nnc2c(Nc3ccc(C4=NN(C(N)=O)C(c5ccc(Cl)cc5)C4)cc3)nc3ccccc3n12` (stereo not given) was tested. Which “inhibition zone (IZ)” value did it give?
**A.** Its value is 22 mm.

**Q.** With `CCc1nnc2c(Nc3ccc(C(=O)/C=C/c4ccc(OC)cc4)cc3)nc3ccccc3n12` as the molecule, how does the “inhibition zone (IZ)” value read?
**A.** The value was 21 mm.

**Q.** For `CCc1nnc2c(Nc3ccc(C4=NNC(c5ccc(Cl)cc5)C4)cc3)nc3ccccc3n12` (stereo not given), which “inhibition zone (IZ)” value is on record?
**A.** The value was 22 mm.

These molecules were tested on Candida albicans (assay: Antifungal activity against azole-resistant Candida albicans ATCC 18804 assessed as fungal growth inhibition incubated for 24 hrs by CLSI protocol based broth microdilution method).
Type: functional

**Q.** For `O=c1ccc(=O)n(-c2nc(-c3ccc([N+](=O)[O-])cc3)cs2)[nH]1`, which MIC is on record?
**A.** Its MIC is 3.9 µg/mL (≈ 12.3 µM).

**Q.** How did the MIC turn out when `O=c1ccc(=O)n(-c2nc(-c3cc4c(ccc5ccccc54)oc3=O)cs2)[nH]1` was run?
**A.** The MIC was 0.9 µg/mL (≈ 2.31 µM).

These molecules were tested on Aspergillus flavus (assay: Antimicrobial activity against Aspergillus flavus assessed as zone of inhibition).
Type: functional

**Q.** For `Nc1ncc(C2=NC3=Nc4ccccc4C3=N2)c(N)n1`, which “inhibition zone (IZ)” value is on record?
**A.** The value was 18 mm.

**Q.** How did the “inhibition zone (IZ)” value turn out when `O=C1CSC(c2ccccc2)N1c1nc(-c2ccccc2)cc(-c2ccccn2)n1` (stereo not given) was run?
**A.** Its value is 10 mm.

**Q.** Which “inhibition zone (IZ)” value does the source give for `O=C1CNC(c2ccc(Cl)cc2)N1c1nc(-c2ccc(Cl)cc2)cc(-c2ccccn2)n1` (stereo not given) here?
**A.** The value was 10 mm.

**Q.** `Nc1nc(=S)[nH]c(N)c1C1=NC2=Nc3ccccc3C2=N1` was tested. Which “inhibition zone (IZ)” value did it give?
**A.** The value was 14 mm.

Each molecule was assayed on Syncephalastrum racemosum (assay: Antifungal activity against Syncephalastrum racemosum assessed as zone of inhibition).
Type: functional

**Q.** `CCc1nnc2c(Nc3ccc(C4=NN(C(N)=S)C(c5ccccc5)C4)cc3)nc3ccccc3n12` (stereo not given) was tested. Which “inhibition zone (IZ)” value did it give?
**A.** The value was 20 mm.

**Q.** Which “inhibition zone (IZ)” value does the source give for `CCc1nnc2c(Nc3ccc(C4=NN(C(N)=O)C(c5ccc(Cl)cc5)C4)cc3)nc3ccccc3n12` (stereo not given) here?
**A.** Its value is 21 mm.

**Q.** For `CCc1nnc2c(Nc3ccc(C4=NN(c5ccccc5)C(c5ccc(OC)cc5)C4)cc3)nc3ccccc3n12` (stereo not given), which “inhibition zone (IZ)” value is on record?
**A.** Its value is 21 mm.

**Q.** `CCc1nnc2c(Nc3ccc(C(=O)/C=C/c4ccc(C)cc4)cc3)nc3ccccc3n12` was tested. Which “inhibition zone (IZ)” value did it give?
**A.** The value was 20 mm.

**Q.** How did the “inhibition zone (IZ)” value turn out when `CCc1nnc2c(Nc3ccc(Br)cc3)nc3ccccc3n12` was run?
**A.** The value was 20 mm.

What follows are molecules tested on Candida albicans (assay: Antifungal activity against Candida albicans ATCC 10231 assessed as zone of inhibition incubated for 24 hrs by disc diffusion method).
Type: functional

**Q.** Which “inhibition zone (IZ)” value does the source give for `CCc1ccccc1/N=N/c1c(N)nn2c(-c3ccc(Cl)cc3)cc(-c3ccccc3)nc12` here?
**A.** Its value is 19 mm.

**Q.** For `CCOc1ccccc1/N=N/c1c(N)nc2c(/N=N/c3ccccc3OCC)cnn2c1N`, which “inhibition zone (IZ)” value is on record?
**A.** The value was 21 mm.

**Q.** For `CCc1ccccc1/N=N/c1c(N)nc2c(/N=N/c3ccccc3CC)cnn2c1N`, which “inhibition zone (IZ)” value is on record?
**A.** Its value is 21 mm.

Each molecule was assayed on Botrytis cinerea (assay: Antifungal activity against Botrytis cinerea assessed as reduction in fungal growth at 50 ug/ml relative to control).
Type: functional

**Q.** `O=C(Nc1ccc(F)c(Cl)c1)c1ccc(Oc2cc(C(F)(F)F)ncn2)cc1` was tested. Which inhibition at 50 µg/mL did it give?
**A.** The inhibition at 50 µg/mL was 91.7%.

**Q.** Which inhibition at 50 µg/mL does the source give for `Cc1nc(Oc2ccc(C(=O)Nc3ccc(Br)c(Cl)c3)cc2)cc(C(F)(F)F)n1` here?
**A.** Its inhibition at 50 µg/mL is 83.8%.

The molecules below were run on Candida albicans (assay: Antifungal activity against Candida albicans MTCC 227 by disc diffusion method).
Type: functional, organism-based

**Q.** For `CC(=O)N1N=C(C2=C(C)NC(=O)NC2c2ccc(F)cc2)OC1c1cccc([N+](=O)[O-])c1` (stereo not given), which EC50 is on record?
**A.** Its EC50 is 0.16 µg/mL (≈ 0.364 µM).

**Q.** Which EC50 does the source give for `COC(=O)Nc1nc2ccccc2[nH]1` [CARBENDAZIM] here?
**A.** The EC50 was 0.21 µg/mL (≈ 1.1 µM).

**Q.** With `CC(=O)N1N=C(C2=C(C)NC(=O)NC2c2ccc(F)cc2)OC1c1ccccc1` (stereo not given) as the molecule, how does the EC50 read?
**A.** The EC50 was 0.15 µg/mL (≈ 0.38 µM).

**Q.** For `CC(=O)N1N=C(C2=C(C)NC(=O)NC2c2ccc(F)cc2)OC1c1ccc(Cl)cc1` (stereo not given), which EC50 is on record?
**A.** Its EC50 is 0.2 µg/mL (≈ 0.466 µM).

The molecules below were run on Aspergillus niger (assay: Antifungal activity against Aspergillus niger MTCC 282 by disc diffusion method).
Type: functional, organism-based

**Q.** With `CC(=O)N1N=C(C2=C(C)NC(=O)NC2c2ccc(F)cc2)OC1c1cccc([N+](=O)[O-])c1` (stereo not given) as the molecule, how does the EC50 read?
**A.** Its EC50 is 0.16 µg/mL (≈ 0.364 µM).

**Q.** With `CC(=O)N1N=C(C2=C(C)NC(=O)NC2c2ccc(F)cc2)OC1c1ccccc1` (stereo not given) as the molecule, how does the EC50 read?
**A.** Its EC50 is 0.15 µg/mL (≈ 0.38 µM).

**Q.** `CC(=O)N1N=C(C2=C(C)NC(=O)NC2c2ccc(F)cc2)OC1c1ccc(Cl)cc1` (stereo not given) was tested. Which EC50 did it give?
**A.** Its EC50 is 0.2 µg/mL (≈ 0.466 µM).

These molecules were tested on Candida albicans (assay: Antifungal activity against Candida albicans NRRL-Y477 assessed as zone of inhibition by disc diffusion method).
Type: functional

**Q.** Which “inhibition zone (IZ)” value does the source give for `O=C(CSc1nc2sc3c(c2c(=O)n1-c1ccc(Cl)cc1)CCCC3)Nc1nc(-c2cccc(Br)c2)cs1` here?
**A.** Its value is 18 mm.

The molecules below were run on Trichophyton rubrum (assay: Antifungal activity against Trichophyton rubrum assessed as diameter of zone inhibition).
Type: functional

**Q.** With `CN(C)c1ccc(-c2cc(Br)c(O)nn2)cc1` as the molecule, how does the “inhibition zone (IZ)” value read?
**A.** Its value is 15 mm.

**Q.** `Oc1nnc(-c2ccc(Cl)cc2)cc1Br` was tested. Which “inhibition zone (IZ)” value did it give?
**A.** Its value is 14 mm.

**Q.** For `Oc1nnc(-c2ccccc2Cl)cc1Br`, which “inhibition zone (IZ)” value is on record?
**A.** Its value is 14 mm.

**Q.** For `Cc1c(-c2ccc(Br)cc2)nnc(O)c1Br`, which “inhibition zone (IZ)” value is on record?
**A.** Its value is 14 mm.

What follows are molecules tested on Cryptococcus neoformans (assay: Antifungal activity against Cryptococcus neoformans assessed as reduction in fungal growth incubated for 24 hrs by broth microdilution method).
Type: functional

**Q.** For `Cc1nc(NC(=O)c2cc(C(F)(F)F)cc(C(F)(F)F)c2)c2c(C(F)(F)F)cc(-c3ccccc3)nc2n1`, which MIC is on record?
**A.** The MIC was 12.5 µg/mL (≈ 23 µM).

**Q.** With `Cc1nc(NC(=O)c2cc3ccccc3o2)c2c(C(F)(F)F)cc(-c3ccccc3)nc2n1` as the molecule, how does the MIC read?
**A.** Its MIC is 12.5 µg/mL (≈ 27.9 µM).

**Q.** Which MIC does the source give for `NC(=S)NNC(=O)c1c[nH]c2ncnn2c1=O` here?
**A.** Its MIC is 25 µg/mL (≈ 98.7 µM).
